Legend:
[1] = test system: Jurkat cells (integrin expressing) adhering to immobilized CS1-BSA; assay: Static adhesion of integrin expressing cells to an immobilized integrin ligand; format: cell-based
Protocol: The effective concentration of a representative agonist compound, THI0019, in a cell carrier was evaluated by a static adhesion of integrin expressing cells to an immobilized integrin ligand in vitro, as described below.
The effective concentration of THI0019, a representative agonist compound used in this example, was evaluated by a static adhesion of integrin expressing cells to an immobilized integrin ligand. The 25 amino acid alternatively spliced sequence of fibronectin named connecting segment 1 (CS1) was synthesized and conjugated to BSA. CS1-BSA at 0.3 μg/mL in 50 μL of a representative cell carrier was added to wells of a 96-well plate and allowed to coat overnight at 4° C. The representative cell carrier is isotonic Tris Buffered Saline comprising 50 mM Tris-HCl (pH 7.4), 150 mM NaCl and 1 mM MgCl2 and is a model isotonic buffer. Plates were washed with the cell carrier and blocked with 2 wt. % BSA for 1 h. 32×10^6 of Jurkat cells were labeled for 30 minutes with calcein-AM (Molecular Probes), washed 2 times with the cell carrier, resuspended in 8 mL of the cell carrier, and divided equally between two tubes. One tube of the cell suspension was treated with 40 μL DMSO (control) and the other with 40 μL of 1 mM THI0019 in DMSO. The control containing tube and the THI0019 containing tube were each further divided equally among four eppendorf tubes (Tubes 1-4 for each group) such that each contained 4×10^6 of the cells in 1 mL of the control or the THI0019 containing cell carrier. Tube 1 from each group was not further processed (“no treatment”). Tubes 2-4 were centrifuged at 100×G for 5 min at RT. The supernatant was carefully removed with a pipet and each cell pellet was resuspended in 1 mL of the cell carrier without the agonist compound. Tube 2 was not further processed (“pellet”). Tubes 3-4 were again centrifuged at 100×G for 5 min. The supernatant was carefully removed with a pipet and each cell pellet was resuspended in 1 mL of the cell carrier without the agonist compound. Tube 3 was not further processed (“1 wash”). Tube 4 was again centrifuged at 100×G for 5 min. The supernatant was carefully removed with a pipet and the cell pellet was resuspended in 1 mL of the cell carrier without the agonist compound. Tube 4 was not further processed (“2 wash”). The final concentrations of THI0019 in the respective cell carriers for no treatment, pellet, 1 wash, and 2 wash were 10 μM, […]. […] After 30-minute incubation at 37° C., the plates were washed 3 times with binding cell carrier, the adherent cells were lysed, and fluorescence was measured on a Tecan Safire plate reader. The number of cells bound was determined by standard curves correlating fluorescence to cell number generated with the same mixtures used for the assay.

[2] = test system: TF-1 cells on immobilized recombinant human VCAM-1; conditions: interpretation of cited detachment assay data; cited from earlier work
[3] = static adhesion, FIG. 1, printed as 'at least 1 femtomolar (fM) to 1 μM'

CCCC[C@@H](COC(=O)N(Cc1cccs1)Cc1cccs1)NC(=O)N[C@@H](CC(=O)OC)c1ccc2c(c1)OCO2 [THI0019, methyl (6S,10S)-10-(1,3-benzodioxol-5-yl)-6-butyl-3,8-dioxo-1-(2-thienyl)-2-(2-thienylmethyl)-4-oxa-2,7,9-triazadodecan-12-oate]
ability of agonist treated cells to bind to a cognate ligand after exposure ([1]; after exposure to the agonist in cell carrier): enhanced ability to bind to a cognate ligand within minutes
adhesion potential of cells after dilution/washing of compound from cell carrier ([1]; compound reduced by multiple 1000-fold serial dilutions to as low as 1 fM in cell carrier): retained the ability to exhibit enhanced adhesion potential
effective amount of the agonist compound present in the cell carrier, lower end of range [1, 3]: 1 fM
effective amount of the agonist compound present in the cell carrier, upper end of range [1, 3]: 1 µM
effect on VCAM-1 / VLA-4 interaction (applicant's reading of Vanderslice data) [2]: stabilizes the VCAM-1 and VLA-4 interaction and upon endogenous ligand binding, the compound is displaced

— patent US20150250883A1, “COMPOSITIONS AND METHODS TO IMPROVE THE HOMING AND GRAFTING OF HEMATOPOETIC STEM CELLS” (7 HILLS PHARMA, LLC, priority 2014, published 2015)
